Results as given in paper PMC3124589 (Biochimica et biophysica acta, 2011).
Entries after “also recorded” stand apart in the source; their conditions may differ. Read-outs that look alike come from different tables or passages of the source.

How the values were obtained:
mtDAPDC [1] = biological target: T1, mtDAPDC (Mycobacterium tuberculosis, UniProt P9WIU7); test: Inhibition assay for mtDAPDC, coupled carbon dioxide assay; format: biochemical
mtDAPDC [2] = biological target: T1, mtDAPDC; test: HPLC assay for reaction of mtDAPDC with alternate substrates; format: biochemical; conditions: reaction 25 °C, 12–16 hours; OPA derivatization
mtDAPDC [3] = biological target: T1, mtDAPDC; test: Steady-state coupled carbon dioxide assay, mtDAPDC; format: biochemical; conditions: for kcat / Km: errors in parentheses; for Km: meso-DAP value corrected for the 50% D,L-DAP present
yeast ODC = conditions: read-out: concentration necessary for 50% inhibition; cited from earlier work
S. cerevisiae ODC = S. cerevisiae ODC (Saccharomyces cerevisiae, UniProt P08432); test: biochemical
Sequence of S. cerevisiae ODC (P08432 whole entry): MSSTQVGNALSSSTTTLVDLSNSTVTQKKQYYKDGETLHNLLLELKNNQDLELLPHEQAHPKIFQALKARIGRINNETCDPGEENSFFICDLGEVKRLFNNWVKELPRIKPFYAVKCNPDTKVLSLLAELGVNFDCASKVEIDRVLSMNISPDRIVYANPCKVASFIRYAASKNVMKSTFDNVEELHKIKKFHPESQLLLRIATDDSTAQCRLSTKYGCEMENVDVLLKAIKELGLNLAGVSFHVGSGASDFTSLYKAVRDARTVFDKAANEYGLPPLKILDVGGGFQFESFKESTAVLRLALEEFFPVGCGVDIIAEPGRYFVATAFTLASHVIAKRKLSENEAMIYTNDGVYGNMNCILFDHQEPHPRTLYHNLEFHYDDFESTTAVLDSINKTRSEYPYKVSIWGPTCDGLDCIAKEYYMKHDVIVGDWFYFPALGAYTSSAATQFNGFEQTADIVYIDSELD

[4] = D,L-DAP held at Km (400 μM), competitive inhibition assumed (eq 1)

T1 sequence (P9WIU7 whole entry, looked up): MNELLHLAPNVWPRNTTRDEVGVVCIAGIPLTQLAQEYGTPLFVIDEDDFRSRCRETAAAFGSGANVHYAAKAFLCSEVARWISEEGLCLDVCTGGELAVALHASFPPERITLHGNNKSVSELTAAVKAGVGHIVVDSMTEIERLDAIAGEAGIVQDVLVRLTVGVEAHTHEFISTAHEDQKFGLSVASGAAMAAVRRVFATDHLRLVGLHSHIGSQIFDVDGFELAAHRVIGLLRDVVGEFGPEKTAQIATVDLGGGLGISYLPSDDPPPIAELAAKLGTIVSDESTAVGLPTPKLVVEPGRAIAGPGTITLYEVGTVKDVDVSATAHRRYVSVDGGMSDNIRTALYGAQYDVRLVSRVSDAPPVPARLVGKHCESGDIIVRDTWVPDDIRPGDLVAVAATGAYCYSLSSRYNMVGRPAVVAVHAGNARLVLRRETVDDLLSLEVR

| SMILES | Ki (mtDAPDC [1]; [4]) [µM] | decarboxylation detected by HPLC (mtDAPDC [2]) | kcat (mtDAPDC [3]) | Km (mtDAPDC [3]) [mM] | also measured |
| --- | --- | --- | --- | --- | --- |
| NCCCC[C@@H](N)C(=O)O [D-lysine] | 26000 | decarboxylated |  |  |  |
| N[C@@H](CCC[C@H](N)C(=O)O)C(=O)O [D,L-DAP, D,L-diaminopimelate] |  |  | 7.1 (0.1) s^−1 | 0.43 |  |
| NCCCCN [putrescine] |  |  |  |  | IC50 (yeast ODC): 100 µM; Ki (S. cerevisiae ODC): 250 ± 45 µM |
| NCCCC[C@H](N)C(=O)O [L-lysine] |  | no detectable amounts of their decarboxylation products |  |  | Ki (mtDAPDC [1]): 1800 µM |
| NC(CCCC(N)C(=O)O)C(=O)O [L,L-DAP] | 1600 | no detectable amounts of their decarboxylation products; also recorded: not decarboxylated |  |  | binding weaker than D,L-DAP (mtDAPDC [1]; Ki compared with Km of D,L-DAP): ~ 4 fold |
| N[C@H](CCC[C@@H](N)C(=O)O)C(=O)O [D,D-DAP] |  | decarboxylated | 1.8 (0.3) s^−1 | 17 | kcat less than with the natural substrate (mtDAPDC [3]; relative to D,L-DAP): 4 fold; kcat/KM lower than D,L-DAP (mtDAPDC [3]; relative to D,L-DAP): ~ 100 fold; inhibition of the D,L-DAP reaction (mtDAPDC [1]; at concentrations of 6 mM (data not shown)): no detectable inhibition |
